Values joined by “and” are separate entries in the source; they are usually repeats but may differ in a detail not shown here. Equal values may be shown once.
Test: xn = mol fraction of the nth substance listed

CS(C)=O + CC(C)O
viscosity [mPa·s]
Settings | 298.15 K | 303.15 K | 308.15 K | 318.15 K
101 kPa, x1 = 0.0385 | 1.91 | 1.59 | 1.46 | –
101 kPa, x1 = 0.0787 | 1.77 | 1.49 | 1.36 | –
101 kPa, x1 = 0.1001 | – | 1.525 | – | –
101 kPa, x1 = 0.2059 | 1.51 | – | – | –
101 kPa, x1 = 0.2479 | 1.45 | 1.32 | 1.2 | –
101 kPa, x1 = 0.339 | 1.42 | 1.29 | – | –
101 kPa, x1 = 0.4639 | 1.45 | 1.32 | – | –
101 kPa, x1 = 0.5357 | 1.48 | 1.35 | 1.24 | –
101 kPa, x1 = 0.6422 | 1.55 | 1.42 | 1.32 | –
101 kPa, x1 = 0.7547 | 1.66 | 1.51 | 1.39 | –
101 kPa, x1 = 0.8134 | 1.72 | 1.57 | 1.45 | –
101 kPa, x1 = 0.8738 | 1.8 | 1.64 | 1.5 | –
101 kPa, x1 = 0.9005 | – | – | – | 1.285
101 kPa, x1 = 0.936 | 1.88 | 1.72 | – | –
101.3 kPa, x1 = 0.0788 | 1.742 | 1.576 | – | –
101.3 kPa, x1 = 0.1608 | 1.589 | 1.447 | – | –
101.3 kPa, x1 = 0.2475 | 1.473 | 1.358 | – | –
101.3 kPa, x1 = 0.3389 | 1.475 | 1.319 | – | –
101.3 kPa, x1 = 0.4347 | 1.451 | – | – | –
101.3 kPa, x1 = 0.5347 | 1.501 | 1.346 | – | –
101.3 kPa, x1 = 0.6423 | 1.597 | 1.406 | – | –
101.3 kPa, x1 = 0.7546 | 1.679 | 1.505 | – | –
101.3 kPa, x1 = 0.8737 | 1.828 | 1.622 | – | –

OC1CCCCC1 + OC1CCCC1
viscosity [mPa·s], 100 kPa
Settings | x2 = 0.1 | x2 = 0.3 | x2 = 0.5 | x2 = 0.7 | x2 = 0.9
303.15 K | 34.92 | 23.18 | 16.54 | 12.51 | 9.2
308.15 K | 27.86 | 19.17 | 13.78 | 10.67 | 7.88
313.15 K | 21.32 | 15.13 | 11.11 | 8.78 | 6.57
318.16 K | 16.48 | 11.96 | 9.04 | 7.2 | 5.49

C1CCCCCCC1 + c1ccccc1
303.15 K, 101 kPa
Settings | viscosity [mPa·s]
x1 = 0.1002 | 0.5993
x1 = 0.2 | 0.6484
x1 = 0.2967 | 0.7078
x1 = 0.3983 | 0.788
x1 = 0.4982 | 0.8861
x1 = 0.6999 | 1.179
x1 = 0.8961 | 1.654

CCN(CC)S(C)(=O)=O + CCCO
303.15 K, 101.33 kPa
Settings | viscosity [mPa·s]
x1 = 0.0661 | 16100
x1 = 0.1423 | 15830
x1 = 0.2148 | 16120
x1 = 0.3057 | 16930
x1 = 0.3821 | 17930
x1 = 0.4421 | 18840
x1 = 0.5219 | 20390
x1 = 0.5944 | 22040
x1 = 0.685 | 24610
x1 = 0.7587 | 27160
x1 = 0.8085 | 29250
x1 = 0.8907 | 33340

OC1CCCCC1 + CN1CCCC1=O
Settings | viscosity [mPa·s]
303.15 K, 101 kPa, x2 = 0.6223 | 16.55

CCC(N)=O + [Al+3].[Cl-].[Cl-].[Cl-]
viscosity [mPa·s], 101 kPa
Settings | x2 = 0.5 | x2 = 0.52 | x2 = 0.57 | x2 = 0.6 | x2 = 0.63
313 K | 32.65 | 25.38 | 23.95 | 24.65 | 25.32
323 K | 23.49 | 19.12 | 17.93 | 18.32 | 18.7

CCN(CC)S(C)(=O)=O + CC(C)(C)O
303.15 K, 101.33 kPa
Settings | viscosity [mPa·s]
x1 = 0.0764 | 28570
x1 = 0.1463 | 26300
x1 = 0.2364 | 24820
x1 = 0.3171 | 24370
x1 = 0.3944 | 24530
x1 = 0.4712 | 25010
x1 = 0.5369 | 25790
x1 = 0.6062 | 26640
x1 = 0.6888 | 27960
x1 = 0.7621 | 30100
x1 = 0.8534 | 33040
x1 = 0.9381 | 36570

NS(=O)(=O)O + CS(C)=O
298 K, 101.33 kPa
Settings | viscosity [mPa·s]
x1 = 0.02135 | 2.438
x1 = 0.04282 | 3.041
x1 = 0.06425 | 3.822
x1 = 0.08365 | 4.853

CS(C)=O + C1CCOC1
298.15 K, 101 kPa
Settings | viscosity [mPa·s]
x2 = 0.27 | 1.523
x2 = 0.52 | 1.112
x2 = 0.76 | 0.7376

CCCCC + CCCCCCCCCCCCCCCC
298.15 K, 101.33 kPa
Settings | viscosity [mPa·s]
x1 = 0.1111 | 2.574
x1 = 0.2119 | 2.17
x1 = 0.3099 | 1.816
x1 = 0.4166 | 1.457
x1 = 0.5122 | 1.172
x1 = 0.6089 | 0.9218
x1 = 0.7034 | 0.7004
x1 = 0.8034 | 0.5086
x1 = 0.9029 | 0.3464

CCCCCCCCCC + CCCCCCC
Settings | viscosity
293.15 K, 100 kPa, x1 = 0.3 | 0.506 mPa·s
293.15 K, 101.33 kPa, x2 = 0.321 | 0.725 mPa·s
293.15 K, 101.33 kPa, x2 = 0.587 | 0.584 mPa·s
293.15 K, 101.33 kPa, x2 = 0.81 | 0.489 mPa·s
294.62 K, 101.3 kPa, x2 = 0.49 | 0.64 mPa·s
298.15 K, 101.33 kPa, x2 = 0.0985 | 0.8051 mPa·s
298.15 K, 101.33 kPa, x2 = 0.2017 | 0.745 mPa·s
298.15 K, 101.33 kPa, x2 = 0.3053 | 0.6806 mPa·s
298.15 K, 101.33 kPa, x2 = 0.4073 | 0.6363 mPa·s
298.15 K, 101.33 kPa, x2 = 0.5076 | 0.5891 mPa·s
298.15 K, 101.33 kPa, x2 = 0.6069 | 0.5466 mPa·s
298.15 K, 101.33 kPa, x2 = 0.7083 | 0.4983 mPa·s
298.15 K, 101.33 kPa, x2 = 0.8023 | 0.4575 mPa·s
298.15 K, 101.33 kPa, x2 = 0.903 | 0.4242 mPa·s
303.11 K, 100 kPa, x2 = 0.77 | 0.4628 mPa·s and 0.4626 mPa·s
303.15 K, 101.3 kPa, x2 = 0.77 | 0.4628 mPa·s
303.17 K, 100 kPa, x2 = 0.49 | 0.5761 mPa·s and 0.5762 mPa·s
303.17 K, 101.3 kPa, x2 = 0.49 | 0.5761 mPa·s
313.11 K, 101.3 kPa, x2 = 0.49 | 0.5111 mPa·s
313.15 K, 100 kPa, x1 = 0.3 | 0.393 mPa·s
313.18 K, 101.3 kPa, x2 = 0.77 | 0.4127 mPa·s
323.15 K, 100 kPa, x2 = 0.49 | 0.4588 mPa·s
323.15 K, 101.3 kPa, x2 = 0.49 | 0.4588 mPa·s

CCN(CC)CCO + CC(=O)c1ccccc1
viscosity [mPa·s], 101.3 kPa
Settings | x2 = 0.1124 | x2 = 0.2218 | x2 = 0.3282 | x2 = 0.4318 | x2 = 0.5327 | x2 = 0.631 | x2 = 0.7268 | x2 = 0.8201 | x2 = 0.9112
303.15 K | 3.131 | 2.954 | 2.778 | 2.601 | 2.424 | 2.247 | 2.07 | 1.894 | 1.717
313.15 K | 2.304 | 2.193 | 2.083 | 1.972 | 1.862 | 1.752 | 1.641 | 1.531 | 1.42
323.15 K | 1.458 | 1.446 | 1.434 | 1.419 | 1.401 | 1.381 | 1.36 | 1.335 | 1.311

CC1(C)OCC(CO)O1 (stereo not given) + OCC(O)CO
viscosity [mPa·s], 101 kPa
Settings | x1 = 0.1 | x1 = 0.2015 | x1 = 0.3 | x1 = 0.4012 | x1 = 0.499 | x1 = 0.6002 | x1 = 0.7 | x1 = 0.801 | x1 = 0.9003
298.15 K | 803.5 | 702.6 | 600.8 | 502.2 | 407.7 | 319.4 | 243.3 | 163.1 | 84.15
308.15 K | 356.9 | 310 | 262 | 212.8 | 167.1 | 129.5 | 97.75 | 69.56 | 35.83
318.15 K | 175.4 | 150 | 123.5 | 98.86 | 75.9 | 54.95 | 43.91 | 31.63 | 16.65

— the CheMixHub viscosity set
